In PubChem BioAssay AID624167 (Sanford-Burnham Center for Chemical Genomics, 2012):
Activity calls are given as the source filed them.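 How the source made its calls: active means mean IC50 for reducing PEG3 promoter reporter signal at or below a set limit, with IC50 above the limit in both counter screens; inactive means the rest, including counter screen hits.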

Columns and labels:
[1] = molecular target: PEG-3 (UniProt Q6IN02); experiment: Peg3 promoter luciferase inhibitors, potency, dose response, cell-based, HeLa, CREF/GAPDH counter-screen panel (AID 624167); settings: HeLa PEG-Prom luciferase reporter, overnight, CREF/GAPDH counter-screens, mean of runs
[2] = system: PEG-3; experiment: as above; settings: HeLa PEG-Prom luciferase reporter, overnight, CREF/GAPDH counter-screens
[3] = run 1, dose range 1, individual replicate IC50 per panel
[4] = run 2, dose range 1, individual replicate IC50 per panel

PEG-3 (UniProt Q6IN02), sequence (Q6IN02 whole entry, looked up): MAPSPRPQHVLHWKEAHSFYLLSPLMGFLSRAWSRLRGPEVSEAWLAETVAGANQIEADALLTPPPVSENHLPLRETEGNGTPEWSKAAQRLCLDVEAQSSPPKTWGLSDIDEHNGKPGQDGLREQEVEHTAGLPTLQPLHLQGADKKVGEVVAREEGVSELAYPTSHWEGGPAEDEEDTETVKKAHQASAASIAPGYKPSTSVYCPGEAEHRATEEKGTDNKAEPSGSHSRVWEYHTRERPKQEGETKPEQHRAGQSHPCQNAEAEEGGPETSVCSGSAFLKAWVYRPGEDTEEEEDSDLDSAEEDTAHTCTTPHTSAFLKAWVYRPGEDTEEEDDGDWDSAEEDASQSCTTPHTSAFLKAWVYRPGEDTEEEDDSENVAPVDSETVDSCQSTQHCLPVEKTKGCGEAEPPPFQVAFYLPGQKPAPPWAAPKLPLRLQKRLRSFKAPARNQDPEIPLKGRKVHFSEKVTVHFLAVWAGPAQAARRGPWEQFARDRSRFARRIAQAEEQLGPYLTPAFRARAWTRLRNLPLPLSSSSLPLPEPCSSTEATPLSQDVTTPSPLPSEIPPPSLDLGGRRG

Structure (SMILES) | IC50 [1] | IC50 [2, 3] | IC50 [2, 4]
CN(C)c1ccc(N=Nc2nc3ccccc3n2C)cc1 | inactive | 20.6 µM | < 100 µM
COc1cccc(/C=N/Nc2cc(C)nc(-c3ccccc3O)n2)c1O | 13 µM | 12.5 µM | 13.6 µM
COc1ccccc1N1CCN(C(=O)c2sc3ncnc(N4CCN(c5ccccn5)CC4)c3c2C)CC1 | inactive | 27.6 µM | 19.7 µM
CN(C)CCNc1ncnc2c1sc1nc(N3CCCC3)c3c(c12)CC(C)(C)OC3 | inactive | 32.7 µM | 13.1 µM
CCOC(=O)c1c(NC(=O)CSc2nnnn2-c2ccccc2OCC)sc2c1CC(C)(C)NC2(C)C | inactive | 19.6 µM | 39.9 µM
COc1cccc(CN(C)C(=O)C(CCSC)NS(=O)(=O)c2ccc3c(c2)OCCO3)c1OC (centres undefined) | inactive | 61 µM | 8.89 µM
COc1cc(C=NO)nc(-c2ccccn2)c1 | 0.52 µM | 0.84 µM | < 0.2 µM
COc1ccccc1NC(=O)c1cc(-c2cc(OC)c(OC)c(OC)c2)nc2ccccc12 | 15.2 µM | 27.3 µM | 3.16 µM
COc1ccc(-c2nc(NC(=O)c3n[nH]c(=O)c4ccccc34)sc2C)cc1 | inactive | 0.904 µM | > 100 µM
c1ccc(CN=C(NCc2ccccc2)NCc2ccccc2)cc1 | inactive | 23.4 µM | 41.9 µM
COc1cccc(-c2nnc3n2N=C(C(C)(C)C)CS3)c1 | 17.8 µM | 14.1 µM | 21.5 µM
Cc1cccc(N=C2Sc3nc4c(C)c(C)ccc4cc3CN2CCN2CCOCC2)c1 | inactive | 29.3 µM | 32 µM
COc1ccc(-c2cc(-c3ccc(F)cc3)nc(N3CCN(C)CC3)n2)cc1 | inactive | 21.6 µM | > 100 µM
CCOc1cc(CNCCCN2CCOCC2)ccc1OCC(=O)Nc1cccc2ccccc12 | 18.7 µM | 21.1 µM | 16.2 µM
COc1cccc(N2CCN(CC(=O)Nc3ccccc3C(=O)NCc3ccccc3)CC2)c1 | inactive | 16.6 µM | 35 µM
O=[N+]([O-])c1ccc(NC2CCN(Cc3ccccc3)CC2)c2ccncc12 | inactive | 23.9 µM | 21.7 µM
O=C(C=Cc1ccccn1)c1ccccc1 | 16.6 µM | 20.7 µM | 12.5 µM
C=C(C)Cn1c(SCC(=O)N/N=C/c2c(O)ccc3ccccc23)nc2ccccc2c1=O | > 100 µM (inactive) | > 100 µM | > 100 µM
COc1cc(NC(=O)Nc2nc(C(N)CCc3ccccc3)cs2)cc(OC)c1OC (centres undefined) | inactive | 21.3 µM | 40.6 µM
c1ccc(-c2cc(-c3ccccc3)[n+](-c3ccccc3)c(-c3ccccc3)c2)cc1 | 12.3 µM | 10.7 µM | 13.9 µM
Cc1cc(Cl)n2ncc(-c3ccccc3)c2n1 | inactive | 40.1 µM | > 100 µM
CC(=O)c1cccc(-c2csc3ncnc(Sc4nnnn4C)c23)c1 | 15.7 µM | 16 µM | 15.3 µM
CCCN(CCC)CCCNC(=S)Nc1ccc2nc(N3CCCC3)cc(C)c2c1 | inactive | 27.5 µM | 19.1 µM

Structure (SMILES) | IC50 [1] | IC50 [2, 3] | IC50 [2, 4]
COc1cccc(-c2sc3ccc(OC)cc3c2-c2ccc(OCCN(C)C)cc2)c1 | 15.5 µM | 15.7 µM | 15.2 µM
O=C(Nc1cccc(S(=O)(=O)N2CCOCC2)c1)c1ccc2c(=O)n3c(nc2c1)CCCCC3 | inactive | 25.3 µM | 43.1 µM
COCC(C)n1c(C)cc(C(=O)COC(=O)c2cccn2C)c1C (centres undefined) | inactive | 32.8 µM | > 100 µM
NC(=O)C1CCN(C2=C(Cl)C(=O)c3ccccc3C2=O)CC1 | 17.3 µM | 17.9 µM | 16.6 µM
OC[C@@H]1[C@@H](c2ccc(Cl)cc2)C(c2cccc(Cl)c2)=NN1c1ccccc1 | inactive | 30.5 µM | 16.4 µM
O=[N+]([O-])c1cc(Cl)cc(/C=N\Nc2ccccn2)c1O | inactive | 1.39 µM | > 100 µM
COc1cccc(/C=N/NC(=O)c2c(-c3ccccc3)noc2C)c1O | inactive | 42.2 µM | > 100 µM
CCOc1ccc2[nH]c3c(NCCc4ccc(OC)c(OC)c4)ncnc3c2c1 | inactive | 46.3 µM | > 100 µM
Cc1cccc2c1-c1sc(C(=O)NCCCN3CCCC(C)C3)cc1CO2 (centres undefined) | 15.6 µM | 17.5 µM | 13.7 µM
CC1CCCCN1CCNC(=O)c1ccc2c(=O)n(Cc3ccc(Cl)cc3)c(=S)[nH]c2c1 (centres undefined) | inactive | 19.6 µM | 25.3 µM
CCCN(CC(=O)Nc1ccccc1C)C(=O)CCl | inactive | 56.1 µM | > 100 µM
O=S(=O)(CC(CN1CCCCC1)N1CCCCC1)c1ccccc1 (centres undefined) | inactive | 38.2 µM | 18.2 µM
COc1ccc(CN(C)C(=O)C(Cc2ccccc2)NC(=O)c2ccccc2)cc1F (centres undefined) | inactive | 60.5 µM | 65.3 µM
O=C(CCl)Nc1cccc(-c2cnc3ccccc3n2)c1 | inactive | > 100 µM | 13.2 µM
COc1ccc(NS(=O)(=O)c2ccc3ccccc3c2)c2ncccc12 | 17.6 µM | 13.5 µM | 21.6 µM
CC(NNC(=S)N1CCN(c2ccccn2)CC1)c1nccc2ccccc12 (centres undefined) | inactive | 15.2 µM | 36 µM
CCC(=C(c1ccc(OC)cc1)c1ccc(OC)cc1)c1cn(CC(O)CN2CCN(C)CC2)c2ccccc12 (centres undefined) | 15.7 µM | 18.9 µM | 12.5 µM
CC1(C)Cc2c(C#N)c(N3CCNCC3)nc(-c3ccco3)c2CS1 | 19.9 µM | 22.7 µM | 17.2 µM
O=[N+]([O-])c1ccc(-c2nc(Nc3cccc(O)c3)c3ccccc3n2)cc1 | 12.9 µM | 13.4 µM | 12.5 µM
O=C1C(Cl)=C(Nc2ccc(O)cc2)C(=O)c2ccccc21 | 11.6 µM | 16.1 µM | 7.05 µM
Cc1cccc(-n2ncc3c(N(C)C4CCCCC4)ncnc32)c1 | inactive | 22.6 µM | 26.7 µM
COc1ccc(-c2nsc3c(N4CCCCC4C)ncnc23)cc1 (centres undefined) | 15.7 µM | 17.5 µM | 14 µM
CCCCN(C)C(=O)c1ccc(Nc2nc(C(N)CCc3ccccc3)cs2)nc1 (centres undefined) | inactive | 27.6 µM | 15.4 µM

Structure (SMILES) | IC50 [1] | IC50 [2, 3] | IC50 [2, 4]
CCOc1ccc(Nc2c3ccccc3nc3ccccc23)cc1 | 16.9 µM | 21.9 µM | 11.9 µM
CC1CCCCN1C(=O)c1cccc(NC2=C(Cl)C(=O)N(Cc3ccccc3)C2=O)c1 (centres undefined) | inactive | 29.9 µM | 51.8 µM
CCN1CCN(C(c2ccc(C(F)(F)F)cc2)c2ccc3cccnc3c2O)CC1 (centres undefined) | 19.1 µM | 21.7 µM | 16.5 µM
O=S(=O)(/N=C(/Sc1ccccc1)c1ccccc1)c1ccccc1 | inactive | 28.9 µM | 19.1 µM
Cc1cc(C)c2sc(N(CCCN(C)C)C(=O)c3ccc(S(=O)(=O)N(C)C4CCCCC4)cc3)nc2c1 | 16 µM | 18.9 µM | 13 µM
O=C1NC(=S)NC(=O)C1=Cc1cccn1-c1ccc(O)cc1 | 16.4 µM | 18 µM | 14.8 µM
Cc1cc(C)c2sc(N(CCCN(C)C)C(=O)c3ccc(S(=O)(=O)N(C)Cc4ccccc4)cc3)nc2c1 | 18.9 µM | 20.3 µM | 17.4 µM
NC(N)=N/N=C/c1ccc(Cl)cc1Cl | inactive | 23.6 µM | 17.6 µM
CCCCCCCCNCCS(=O)(=O)NCc1ccc(OC)cc1 | 18 µM | 17.7 µM | 18.3 µM
COc1ccc(-c2oc3ccc(-c4cc(OC)c(OC)c(OC)c4)cc3c2C#Cc2ccccn2)cc1 | 12.2 µM | 2.89 µM | 21.5 µM
COc1ccc(-n2cc(CNC3CCN(C)CC3)c(-c3cccc(F)c3)n2)cc1 | inactive | 26 µM | 15.3 µM
Cc1ccc2[nH]c(=O)c(C3C(C#N)=C(N)Oc4c3ccc3cccnc43)cc2c1 (centres undefined) | inactive | 28.3 µM | 21.7 µM
COc1ccc(CN(C)C(=O)c2cc(-c3ccccc3)nc3ccc(C)cc23)c(OC)c1OC | inactive | 32.8 µM | 23.7 µM
COc1ccc(CC(=O)N(Cc2ccccc2)c2ccccc2)cc1S(=O)(=O)N1CCOCC1 | inactive | 50.5 µM | > 100 µM
CC(C)c1ccc(/C=N/Nc2ccc(C(=O)O)cc2)cc1 | 15.3 µM | 11.1 µM | 19.4 µM
CNCC(O)c1cc(OCc2ccccc2)c(OCc2ccccc2)cc1F (centres undefined) | 18.5 µM | 20.8 µM | 16.3 µM
NC(N)=N/N=C/c1cccc(Cl)c1Cl | 16 µM | 17.4 µM | 14.5 µM
COC(=O)c1c(NC(=O)c2ccc([N+](=O)[O-])o2)sc2c1CCN(C(C)C)C2 | 15.5 µM | 19.2 µM | 11.8 µM
CCCc1nc2oc3c(NCCCN(C)C)ncnc3c2c2c1CCCC2 | 14.7 µM | 19.5 µM | 9.84 µM
CC1=CC(O)C(O)C2(C)C1CC1OC(=O)C(O)C3C(C)C(O)C4(O)OCC13C42 (centres undefined) | inactive | 44.9 µM | 84.3 µM
CN(C)CCNc1ncnc2c1sc1nc(N3CCOCC3)c3c(c12)CC(C)(C)SC3 | 14.4 µM | 18.1 µM | 10.6 µM
COc1cccc(NC(=O)CN(C)C(=O)c2cc(-c3ccc(F)cc3)nc3ccccc23)c1 | inactive | 25.8 µM | 44.6 µM
